Measured values: patent US11466006B2, “Dual selective PI3 delta and gamma kinase inhibitors” (Rhizen Pharmaceuticals SA, priority 2013, dated 2022)

Experiments:
PI3Kδ = PI3Kδ (Homo sapiens, UniProt O00329); assay: Fluorescent (HTRF) determination of PI3 kinase enzyme activity, delta isoform; type: biochemical; parameters: purchased Millipore (assay kit); settings: Table 1, HTRF; read-out: IC50 (nM) Pi3Kδ
Description: Phosphoinositide 3 kinases (PI3K) belong to a class of lipid kinases that play a critical role in the regulation of several key cellular processes. The PI3K are capable of phosphorylating the 3-hydroxy position of phosphoinositols thereby generating second messengers involved in downstream signalling events. The homogenous time resolved fluorescence (HTRF) assay allows detection of 3,4,5-triphosphate (PIP3) formed as a result of phosphorylation of phosphotidylinositol 4,5-biphosphate (PIP2) by PI3K isoforms such as α, β, γ or δ.
PI3K isoform activity for α, β, γ or δ was determined using a PI3K human HTRF™ Assay Kit (Millipore, Billerica, Mass.) with modifications. All incubations were carried out at room temperature. Briefly, 0.5 μl of 40× inhibitor (in 100% DMSO) or 100% DMSO were added to each well of a 384-well white plate (Greiner Bio-One, Monroe, N.C.) containing 14.5 μl 1× reaction buffer /PIP2 (10 mM MgCl2, 5 mM DTT, 1.38 μM PIP2) mix with or without enzyme, followed by 5 μl/well of 400 μM ATP and incubated for an additional 30 minutes. Reaction was terminated by adding 5 μl/well stop solution (Millipore, Billerica, Mass.). […] HRTF ratio was measured on a microplate reader (BMG Labtech., Germany) at an excitation wavelength of 337 nm and emission wavelengths of 665 and 615 nm with an integration time of 400 msec counting delay of 50 msec.

[1] = tested on: ovalbumin sensitized mice; assay: Murine asthma model (ovalbumin sensitized mice); type: in vivo, mouse; settings: 3 mg/kg oral
Description: Airway inflammation and hyper-responsiveness (AHR) are hallmarks and distinguishing features of bronchial asthma. Provocation of pre-sensitized mice with the same allergen induces airway inflammation with preferential eosinophilic infiltration and, as a consequence, AHR. Pulmonary eosinophilia and airway remodelling in conjunction with altered neural control of airway tone and airway epithelial desquamation may contribute to AHR in asthma. After the quarantine period, based on their body weights, mice were randomized and divided into four groups (n=7). Tails were marked with an indelible marking pen for identification. On day 0, weights were recorded and animals were sensitized with 100 μg of Ovalbumin and 10 mg of alum solution (0.2 mL) intraperitoneally. On day 7 and day 14, the above sensitization protocol was repeated. […] On day 24, 25, and 26, after the treatment with test compound by oral gavage, 30 mins later animals were exposed to 10% w/v Ovalbumin challenge. […] Forty eight hours after last OVA challenge, airway hyperresponsiveness was measured by whole body plethysmograph against cumulative doses of methacholine challenge (2.5, 10, 50 and 100 mg/ml), after measuring the airway response, blood samples and BAL fluid was collected. Samples were analysed for total cell count by using neubuear chamber under microscope and differential leukocyte count was done manually.

Female Wistar rats = assay: Lipopolysaccharide-induced rat air pouch model of inflammation; type: in vivo; settings: Neutrophil, oral, 1 h before LPS, pouch fluid at 6 h, read-out: ED50, reduction of neutrophil migration into the rat air pouch
Procedure: Female Wistar rats (175-200 g) were acclimatized for seven days prior to the start of the experiment Animals were randomly distributed to various groups based on their body weights Animals were anaesthetised with ether and subcutaneous air pouches were made by injecting 20 ml of sterile air under the skin in the intra-scapular area (day 0) and maintained with a second 10-ml injection of sterile-filtered air on day 4. On day 6, oral treatment was commenced 1 h prior to induction of inflammation by s.c. injection of LPS solution on day 6. A volume of 5-ml of LPS solution dissolved in sterile saline (100 μg/kg) was injected into each pouch. Samples of pouch fluid were taken at 6 h after administration of LPS by flushing the pouch with 5 ml of sterile saline and withdrawing 4 ml of fluid. The numbers of leukocytes present in pouch fluid was determined microscopically using a haemocytometer. Differential cell content was determined by microscopic examination of fluid smears stained with Diff-Quik.

[2] = tested on: primary cells derived from B-cell lymphomas; assay: Anticancer activity in patient derived B-lymphoma cells (Annexin V/PI); type: cell-based; settings: 4 μM, 48-h incubation
Procedure: Primary cells from lymphoid tumors were exposed to the test compound [Compound A1] to assess the induction of cell death. Cells were derived from diffuse large B-cell lymphoma (DLBCL), mantle cell lymphoma (MCL), splenic marginal zone lymphoma (SMZL), extranodal marginal zone lymphoma (EMZL), or chronic lymphocytic leukemia (CLL, no.=1). Cells were treated with desired concentrations of the compound and apoptosis (Annexin V/PI) was assessed by flow-cytometry after a 48-h incubation period.

pAKT [3] = assay: pAKT inhibition in human primary CTCL cells (flow cytometry); type: cell-based; settings: cytokine mix stimulated, read-out: EC50, reduction of AKT phosphorylation
Procedure: Flow cytometry analysis of pAKT inhibition: Purified malignant T cells were isolated from donors and cultured overnight in RPMI/1% BSA. Cells were incubated with the test compound for 1.5 hr with a cytokine mix added for the final 30 minutes. The composition of the cytokine mix was 20 ng/ml IL2+5 ng/ml IL7+10 ng/ml IL15+10% FBS. AKT phosphorylation was determined by flow cytometry.

pAKT [4] = assay: Inhibition of AKT phosphorylation in B-lymphoma cell lines; type: cell-based; settings: LY-1, LY-10, Daudi, JEKO, REC and MAVER cells; 48 hours
Procedure: LY-1, LY-10, Daudi, JEKO, REC and MAVER cells were incubated with desired concentrations of [compound A1] for 48 hours. Cells were lysed and pAKT was determined by Western Blotting. Bands were quantified using ImageJ and normalized to actin.

Lewis rats = assay: Collagen induced arthritis in Lewis rats; type: in vivo, rat

Sequence of PI3Kδ (O00329 whole entry, canonical isoform): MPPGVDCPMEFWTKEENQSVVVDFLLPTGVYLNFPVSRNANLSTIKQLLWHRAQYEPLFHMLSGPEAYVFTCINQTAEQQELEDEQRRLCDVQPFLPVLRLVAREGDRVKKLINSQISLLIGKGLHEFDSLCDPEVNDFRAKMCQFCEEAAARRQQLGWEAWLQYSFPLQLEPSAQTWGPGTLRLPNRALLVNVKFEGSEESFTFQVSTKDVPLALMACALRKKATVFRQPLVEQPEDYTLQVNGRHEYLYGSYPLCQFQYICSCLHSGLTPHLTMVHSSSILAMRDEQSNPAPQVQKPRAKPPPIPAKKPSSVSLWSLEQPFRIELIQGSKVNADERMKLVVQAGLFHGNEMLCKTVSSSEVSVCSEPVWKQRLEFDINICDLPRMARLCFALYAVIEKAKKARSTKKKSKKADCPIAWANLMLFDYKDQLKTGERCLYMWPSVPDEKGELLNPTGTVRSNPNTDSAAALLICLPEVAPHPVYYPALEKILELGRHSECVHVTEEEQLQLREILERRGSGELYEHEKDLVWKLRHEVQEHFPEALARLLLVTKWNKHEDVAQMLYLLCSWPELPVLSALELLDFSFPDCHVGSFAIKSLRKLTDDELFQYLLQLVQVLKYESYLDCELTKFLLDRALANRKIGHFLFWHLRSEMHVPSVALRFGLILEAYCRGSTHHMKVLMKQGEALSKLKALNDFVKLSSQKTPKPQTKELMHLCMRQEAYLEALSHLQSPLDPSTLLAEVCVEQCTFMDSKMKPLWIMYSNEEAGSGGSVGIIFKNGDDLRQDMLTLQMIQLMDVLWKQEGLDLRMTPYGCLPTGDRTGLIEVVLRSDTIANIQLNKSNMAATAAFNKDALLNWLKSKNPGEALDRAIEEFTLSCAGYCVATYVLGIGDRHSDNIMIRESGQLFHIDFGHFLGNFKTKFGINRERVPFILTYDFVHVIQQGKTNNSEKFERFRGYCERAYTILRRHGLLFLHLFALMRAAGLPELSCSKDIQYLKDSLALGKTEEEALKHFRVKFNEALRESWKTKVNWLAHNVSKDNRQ
Sequence of PI3Kδ (P27986 whole entry partner, canonical isoform): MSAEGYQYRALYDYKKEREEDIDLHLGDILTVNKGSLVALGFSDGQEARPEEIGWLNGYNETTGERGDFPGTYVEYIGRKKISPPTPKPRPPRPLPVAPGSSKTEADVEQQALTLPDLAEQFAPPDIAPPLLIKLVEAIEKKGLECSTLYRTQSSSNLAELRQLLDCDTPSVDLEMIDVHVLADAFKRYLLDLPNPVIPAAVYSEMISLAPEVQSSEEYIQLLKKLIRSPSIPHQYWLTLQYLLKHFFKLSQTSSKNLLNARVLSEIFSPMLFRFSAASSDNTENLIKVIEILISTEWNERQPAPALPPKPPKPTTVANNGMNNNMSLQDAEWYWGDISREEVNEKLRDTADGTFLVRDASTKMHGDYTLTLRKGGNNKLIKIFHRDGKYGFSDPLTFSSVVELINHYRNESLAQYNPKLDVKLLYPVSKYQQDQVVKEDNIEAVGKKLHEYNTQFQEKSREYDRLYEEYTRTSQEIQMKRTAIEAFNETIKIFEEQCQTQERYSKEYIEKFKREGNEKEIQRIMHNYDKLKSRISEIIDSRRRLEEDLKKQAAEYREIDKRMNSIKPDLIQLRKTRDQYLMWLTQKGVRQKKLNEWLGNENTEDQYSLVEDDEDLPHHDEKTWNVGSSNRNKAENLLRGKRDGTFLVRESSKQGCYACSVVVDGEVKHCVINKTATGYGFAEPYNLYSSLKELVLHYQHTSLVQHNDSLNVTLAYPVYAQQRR

IC50 (PI3Kδ): 23.8 nM
EC50 (pAKT [3]): 40 to 300 nM
EC50 (pAKT [4]): 20 to 200 nM
Compound: CC[C@H](Nc1ncnc2[nH]cnc12)c1oc2ccccc2c(=O)c1-c1cccc(F)c1 [Compound A1, (S)-2-(1-(9H-purin-6-ylamino)propyl)-3-(3-fluorophenyl)-4H-chromen-4-one]
airway hyperresponsiveness against methacholine challenge [1]: significant reduction
eosinophil infiltration into the bronchoalveolar lavage fluid [1]: significant inhibition
ED50 (Female Wistar rats): 2.6 mg/kg
cell death (apoptosis, Annexin V/PI) [2]: increase in cell death
histological analysis of joints at study end (Lewis rats; 15 mg/kg): complete structural preservation
individual and summed histopathological scores for knee and ankle (Lewis rats; 15 mg/kg/BID): significant reduction
reduction of knee and ankle swelling (Lewis rats; rat CIA model, dosed therapeutically, oral): significant efficacy
